7 compounds from PubChem BioAssay (NCI) can be followed below.

Each structure is given as a SMILES string.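 Grown in 96-well plates, cells were treated for 48 hours with each compound at five concentrations. Insufficient inhibition: endpoint recorded as highest concentration tested. Abbreviation: GI50, concentration required for 50% inhibition of growth. The concentration for full growth arrest is given as TGI.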 Bounds are passed on as bounds.

Among the test systems are A549 NSCLC; HOP-92 NSCLC; UACC-257 melanoma; SR leukemia; SK-MEL-5 melanoma; COLO 205 colon; UACC-62 melanoma; ACHN renal; A498 renal; HL-60(TB) leukemia.
Holding throughout (test): NCI-60 cell line screen, 48 h

As for `O=C(c1ccccc1)c1c(C(F)(F)F)n([O-])c2cc(C(F)(F)F)ccc2[n+]1=O`, the GI50 in the test with A549 NSCLC is 1720 nM; in the test on HOP-92 NSCLC, 1510 nM; with UACC-257 melanoma, 1710 nM; with SR leukemia, 1170 nM; in the test on SK-MEL-5 melanoma, 1690 nM; in the test with COLO 205 colon it was 1410 nM. Moreover, the GI50 is 1730 nM in the test with UACC-62 melanoma, 1540 nM in the test on ACHN renal, 2220 nM with A498 renal and 550 nM in the test with HL-60(TB) leukemia. Besides, the TGI is 3480 nM in the test on A549 NSCLC; 2950 nM in the test on HOP-92 NSCLC; 3350 nM in the test with UACC-257 melanoma; 3530 nM with SR leukemia; 3240 nM in the test on SK-MEL-5 melanoma; 3270 nM in the test on COLO 205 colon. Besides, the TGI was determined as 3320 nM in the test with UACC-62 melanoma, 2930 nM in the test with ACHN renal, 5220 nM with A498 renal and 1580 nM in the test on HL-60(TB) leukemia.
On to `CCCCCCCC/C=C1\CCC(CN2CCOCC2)C1=O` (centres undefined), for which the TGI was found to be 24700 nM in the test on A549 NSCLC; 33000 nM in the test on HOP-92 NSCLC; 21700 nM in the test on UACC-257 melanoma; 5300 nM with SR leukemia; 23200 nM with SK-MEL-5 melanoma; 17300 nM in the test on COLO 205 colon. Moreover, the TGI is 12600 nM in the test on UACC-62 melanoma, 30100 nM in the test with ACHN renal, 29900 nM with A498 renal and 14800 nM with HL-60(TB) leukemia.
`O=C(/C=C1\C(=O)N(Cc2ccccc2)c2ccccc21)c1ccc(OCCN2CCCCC2)cc1`: the GI50 is 8420 nM in the test on A549 NSCLC; 1360 nM in the test on HOP-92 NSCLC; 12900 nM in the test on UACC-257 melanoma; 1770 nM in the test on SR leukemia; 12600 nM in the test on SK-MEL-5 melanoma; 1770 nM in the test on COLO 205 colon. For the same compound, the GI50 in the test on UACC-62 melanoma is 1830 nM; in the test on ACHN renal, 1630 nM; in the test with A498 renal it was 14200 nM; in the test on HL-60(TB) leukemia, 1710 nM. Also, the TGI worked out at 21600 nM in the test on A549 NSCLC; 2770 nM in the test on HOP-92 NSCLC; 25900 nM with UACC-257 melanoma; 9550 nM in the test on SR leukemia; 25400 nM in the test on SK-MEL-5 melanoma; 3270 nM with COLO 205 colon. Besides, the TGI in the test on UACC-62 melanoma came to 3620 nM; in the test with ACHN renal it was 2980 nM; with A498 renal it was 28800 nM; in the test with HL-60(TB) leukemia it was 4390 nM.
Turning to `O=C(c1ccco1)c1c(C(F)(F)F)n([O-])c2cc(C(F)(F)F)ccc2[n+]1=O`, the GI50 with A549 NSCLC was 445 nM; with HOP-92 NSCLC it was 252 nM; in the test with UACC-257 melanoma, 1550 nM; in the test with SR leukemia it was 39.4 nM; in the test on SK-MEL-5 melanoma, 683 nM; with COLO 205 colon, 475 nM. For the same compound, the GI50 in the test on UACC-62 melanoma is 1440 nM; with ACHN renal, 338 nM; in the test with A498 renal it was 1530 nM; in the test on HL-60(TB) leukemia it was 185 nM. Moreover, the TGI with A549 NSCLC came out at 1020 nM; in the test on HOP-92 NSCLC, 1510 nM; in the test with UACC-257 melanoma, 3270 nM; in the test with SR leukemia, 265 nM; in the test with SK-MEL-5 melanoma it was 1700 nM; with COLO 205 colon, 2000 nM. Further, the TGI with UACC-62 melanoma amounted to 2890 nM; with ACHN renal, 748 nM; in the test on A498 renal, 3280 nM; with HL-60(TB) leukemia it was 484 nM.
For the compound `CC(=O)O[C@H]1C(=O)[C@@]2(C)[C@H]([C@H](OC(=O)c3ccccc3)[C@]3(O)C[C@H](OC(=O)[C@H](OC(=O)OC[C@H]4COC(C)(C)O4)[C@@H](NC(=O)c4ccccc4)c4ccccc4)C(C)=C1C3(C)C)[C@]1(OC(C)=O)CO[C@@H]1C[C@@H]2O`, the GI50 in the test on A549 NSCLC is 29.5 nM; in the test on HOP-92 NSCLC, 51.9 nM; with SR leukemia, 12.6 nM; in the test on SK-MEL-5 melanoma it was 83.2 nM; with COLO 205 colon, 21.6 nM; with UACC-62 melanoma it was 46 nM. In addition, the values for the GI50 in the test with ACHN renal, in the test with A498 renal and in the test on HL-60(TB) leukemia were 343 nM, 54.5 nM and 16.8 nM, respectively. The TGI with A549 NSCLC, in the test with HOP-92 NSCLC, with UACC-257 melanoma, in the test on SR leukemia, in the test with SK-MEL-5 melanoma and with COLO 205 colon was above 33300 nM throughout. The TGI was above 33300 nM in the test with UACC-62 melanoma, above 33300 nM in the test with ACHN renal, 499 nM in the test on A498 renal and above 33300 nM in the test on HL-60(TB) leukemia.
Consider `Cn1c(-c2ccccc2)c(/C=C/C2=[N+](C)c3ccccc3C2(C)C)c2ccccc21`, for which the GI50 is 1730 nM with A549 NSCLC; 616 nM in the test on HOP-92 NSCLC; 405 nM with UACC-257 melanoma; 433 nM in the test with SR leukemia; 363 nM in the test on SK-MEL-5 melanoma; 1000 nM with COLO 205 colon. Also, the GI50 in the test with UACC-62 melanoma was 600 nM; in the test with ACHN renal, 3050 nM; in the test with A498 renal, 1710 nM; with HL-60(TB) leukemia it was 254 nM. The TGI was 12800 nM in the test on A549 NSCLC; 4640 nM with HOP-92 NSCLC; 2530 nM in the test on UACC-257 melanoma; 5770 nM with SR leukemia; 1350 nM in the test with SK-MEL-5 melanoma; 2470 nM in the test on COLO 205 colon. The TGI stood at 3970 nM in the test with UACC-62 melanoma, 11700 nM in the test with ACHN renal, 10900 nM in the test on A498 renal and 565 nM in the test on HL-60(TB) leukemia.
On to `CCCCCCCC(=O)SCC/C=C/[C@@H]1CC(=O)NCc2nc(cs2)C2=N[C@@](C)(CS2)C(=O)N[C@@H](C(C)C)C(=O)N1`, for which the GI50 in the test with A549 NSCLC was 27.3 nM; in the test on HOP-92 NSCLC, below 11.9 nM; in the test with UACC-257 melanoma, below 10 nM; in the test on SR leukemia, below 11.2 nM; in the test on SK-MEL-5 melanoma, 23.3 nM; in the test on COLO 205 colon it was 11.4 nM. Further, the GI50 with UACC-62 melanoma was below 10 nM; in the test on ACHN renal, 508 nM; with A498 renal, 24.4 nM; with HL-60(TB) leukemia, 13 nM. In addition, the TGI is 1530 nM with A549 NSCLC; 229 nM in the test with HOP-92 NSCLC; 39.2 nM in the test with UACC-257 melanoma; above 100000 nM in the test on SR leukemia; 977 nM with SK-MEL-5 melanoma; 30.2 nM in the test with COLO 205 colon. In addition, the TGI was 165 nM with UACC-62 melanoma, 12000 nM with ACHN renal, 333 nM in the test with A498 renal and above 100000 nM with HL-60(TB) leukemia.
